Reference: ChEMBL document CHEMBL4813920, “Metronidazole-conjugates: A comprehensive review of recent developments towards synthesis and medicinal perspective” (Eur J Med Chem, 2021)
Values after ≈ are worked out from the molar mass of the structure shown.

What was measured:
[1] = system: Trichomonas vaginalis; assay: Anti-trichomonas activity against Trichomonas vaginalis JT assessed as release of nitric oxide at 0.027 uM preincubated for 3 hrs followed by DAF-FM DA probe addition and measured after 30 mins by confocal microscopy; type: functional; details: time 3.5 hrs
[2] = system: Trichomonas vaginalis; assay: Anti-trichomonas activity against Trichomonas vaginalis CDC 085 assessed as release of nitric oxide at 0.27 uM preincubated for 3 hrs followed by DAF-FM DA probe addition and measured after 30 mins by confocal microscopy; type: functional; details: time 3.5 hrs
[3] = system: Trichomonas vaginalis; assay: Anti-trichomonas activity against Trichomonas vaginalis JT incubated for 48 hrs by hemocytometer based eosin exclusion assay; type: functional, organism-based
[4] = system: Trichomonas vaginalis; assay: Anti-trichomonas activity against Trichomonas vaginalis CDC 085 incubated for 48 hrs by hemocytometer based eosin exclusion assay; type: functional, organism-based; details: CDC 085, 48 h
[5] = system: Trichomonas vaginalis; assay: Anti-trichomonas activity against Trichomonas vaginalis G3 incubated for 24 hrs by hemocytometer counting method; type: functional, organism-based; details: G3, 24 h
[6] = system: Tritrichomonas foetus; assay: Anti-trichomonas activity against Trichomonas foetus C1 incubated for 24 hrs by hemocytometer counting method; type: functional, organism-based; details: C1, 24 h
[7] = system: Tritrichomonas foetus; assay: Anti-trichomonas activity against Trichomonas foetus D1 incubated for 24 hrs by hemocytometer counting method; type: functional, organism-based; details: D1, 24 h
[8] = system: Pseudomonas aeruginosa; assay: Potency index, ratio norfloxacin MIC to test compound MIC for antibacterial activity against Pseudomonas aeruginosa ATCC 27853; type: functional
[9] = system: Enterococcus faecalis; assay: Antibacterial activity against Enterococcus faecalis by microbroth dilution method; type: functional
[10] = system: Acinetobacter baumannii; assay: Potency index, ratio norfloxacin MIC to test compound MIC for antibacterial activity against Acinetobacter baumannii; type: functional
[11] = system: Candida albicans; assay: Antimicrobial activity against Candida albicans ATCC 90023; type: functional
[12] = system: Enterococcus faecalis; assay: Potency index, ratio norfloxacin MIC to test compound MIC for antibacterial activity against Enterococcus faecalis; type: functional
[13] = system: Escherichia coli; assay: Potency index, ratio norfloxacin MIC to test compound MIC for antibacterial activity against Escherichia coli; type: functional
[14] = system: Escherichia coli; assay: Antibacterial activity against Escherichia coli by microbroth dilution method; type: functional
[15] = system: Candida parapsilosis; assay: Antimicrobial activity against Candida parapsilosis ATCC 22019; type: functional; details: Lodderomyces parapsilosis
[16] = system: Pseudomonas aeruginosa; assay: Antibacterial activity against Pseudomonas aeruginosa ATCC 27853 by microbroth dilution method; type: functional
[17] = system: Acinetobacter baumannii; assay: Antibacterial activity against Acinetobacter baumannii by microbroth dilution method; type: functional
[18] = system: Trichomonas vaginalis; assay: Anti-trichomonas activity against Trichomonas vaginalis JT assessed as release of superoxide radical at 0.229 uM preincubated for 3 hrs followed by Dihydroethidium probe addition and measured after 30 mins by confocal microscopy; type: functional; details: time 3.5 hrs
[19] = system: Clostridium sporogenes; assay: Antimicrobial activity against Clostridium sporogenes ATCC 19404 incubated for 24 hrs by broth microdilution method; type: functional
[20] = system: Staphylococcus aureus; assay: Antibacterial activity against Staphylococcus aureus ATCC 6538P incubated for 24 hrs by broth microdilution method; type: functional
[21] = system: Leishmania mexicana; assay: Antileishmanial activity against promastigote form of Leishmania mexicana MHOM/BZ/82/Bel21 measured for 7 days by cell counting method; type: functional; details: MHOM/BZ/82/Bel21, 168 h, time 7 day
[22] = Selectivity index, ratio of CC50 for African green monkey Vero cells to IC50 for antigiardial activity against Trichomonas vaginalis GT3; type: toxicity; details: read-out: Ratio CC50/IC50
[23] = system: Clostridium perfringens; assay: Antibacterial activity against Clostridium perfringens ATCC 13124 incubated for 48 hrs under anaerobic condition by MTT assay; type: functional
[24] = system: Entamoeba histolytica; assay: Antiamoebic activity against Entamoeba histolytica HK9 ATCC 30015 incubated for 72 hrs by trypan blue staining based assay; type: functional, organism-based; details: ATCC 30015, 72 h
[25] = system: Leishmania braziliensis; assay: Antileishmanial activity against promastigote form of Leishmania braziliensis MHOM/BR/75/M2903 measured for 7 days by cell counting method; type: functional; details: MHOM/BR/75/M2903, 168 h, time 7 day
[26] = system: Giardia intestinalis; assay: Antigiardial activity against Giardia intestinalis WB ATCC 30957 incubated for 72 hrs by trypan blue staining based assay; type: functional, organism-based; details: Giardia duodenalis, WB ATCC 30957, 72 h
[27] = Selectivity index, ratio of CC50 for African green monkey Vero cells to IC50 for antigiardial activity against Giardia intestinalis MSS:0696:1; type: toxicity; details: read-out: Ratio CC50/IC50
[28] = system: Trichomonas vaginalis; assay: Anti-trichomonas activity against Trichomonas vaginalis GT3 incubated for 48 hrs; type: functional, organism-based; details: GT3, 48 h
[29] = system: Trichomonas vaginalis; assay: Anti-trichomonas activity against Trichomonas vaginalis JT assessed as release of H2O2 at 0.229 uM preincubated for 3 hrs followed by DCFH-DA probe addition and measured after 30 mins by confocal microscopy; type: functional; details: time 3.5 hrs
[30] = system: Escherichia coli; assay: Antibacterial activity against Escherichia coli ATCC 8739 incubated for 24 hrs by broth microdilution method; type: functional

Structure (SMILES): Cc1ncc([N+](=O)[O-])n1CCCl
- Activity [1]: 9000 a.u.
- Activity [2]: 9000 a.u.
- IC50 [3]: 0.006 µM
- IC50 [4]: 0.24 µM

Structure (SMILES): Cc1ncc([N+](=O)[O-])n1CCn1cc(CN2C(=O)/C(=N\NC(N)=S)c3ccccc32)nn1
- IC50 [5]: 2.6 µM
- IC50 [6]: 0.6 µM
- IC50 [7]: 0.6 µM

Structure (SMILES): Cc1ncc([N+](=O)[O-])n1CC(O)CN1CCN(S(=O)(=O)c2ccc(N)cc2)CC1 (configuration not stated)
- Ratio [8]: 11
- MIC [9]: 75 µM (≈ 31.8 µg/mL)
- Ratio [10]: 11
- MIC [11]: 75 µM (≈ 31.8 µg/mL)
- Ratio [12]: 11
- Ratio [13]: 84
- MIC [14]: 19 µM (≈ 8.07 µg/mL)
- MIC [15]: 75 µM (≈ 31.8 µg/mL)
- MIC [16]: 38 µM (≈ 16.1 µg/mL)
- MIC [17]: 75 µM (≈ 31.8 µg/mL)

Structure (SMILES): Cc1ncc([N+](=O)[O-])n1CCO [METRONIDAZOLE]
- Activity [18]: 350000 a.u.
- MIC [19]: 42.9 µM (≈ 7.34 µg/mL)
- MIC [20]: 2050 µM (≈ 351 µg/mL)
- LC50 [21]: > 1000 µM
- selectivity ratio [22]: > 107
- MIC [23]: 0.0058 µM (≈ 0.000993 µg/mL)
- IC50 [24]: 5.2 µM
- LC50 [25]: > 1000 µM
- IC50 [26]: 5.7 µM
- IC50 [3]: 0.068 µM
- selectivity ratio [27]: > 22
- IC50 [28]: 0.93 µM
- IC50 [4]: 0.49 µM
- Activity [29]: 1800000 a.u.
- MIC [30]: 5480 µM (≈ 938 µg/mL)
